Results taken from ChEMBL document CHEMBL1201862, “PubChem BioAssay data set” (2004).
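Five concentrations, 48 hours, 96-well plates. GI50 = concentration required for 50% inhibition of growth.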 Calls of active or inactive are those of the source. Rule as the data show it: active = GI50 up to about 1.1 µM and inactive = higher.

Key:
Experiment in all cases: inhibition of tumour cell growth, NCI panel, 48 h
K562 = test system: K562
HCC 2998 = test system: HCC 2998
SNB-75 = test system: SNB-75
KM-20L2 = test system: KM-20L2
Hs-578T = test system: Hs-578T
M19-MEL = test system: M19-MEL
CCRF-CEM = test system: CCRF-CEM
HOP-92 = test system: HOP-92
SR = test system: SR
UO-31 = test system: UO-31
UACC-62 = test system: UACC-62
SK-OV-3 = test system: SK-OV-3
XF498 = test system: XF498
HT-29 = test system: HT-29
HL-60 = test system: HL-60
SK-MEL-2 = test system: SK-MEL-2
HCT-116 = test system: HCT-116
T47D = test system: T47D
SF-268 = test system: SF-268
MDA-MB-231 = test system: MDA-MB-231
DLD-1 = test system: DLD-1
MOLT-4 = test system: MOLT-4
HOP-62 = test system: HOP-62
KM12 = test system: KM12
A549 = test system: A549
MCF7 = test system: MCF7
Malme-3M = test system: Malme-3M
SNB-78 = test system: SNB-78
EKVX = test system: EKVX
DMS-273 = test system: DMS-273
SN12C = test system: SN12C
SNB-19 = test system: SNB-19
OVCAR-4 = test system: OVCAR-4
NCI-H522 = test system: NCI-H522
LOX IMVI = test system: LOX IMVI
IGROV-1 = test system: IGROV-1
OVCAR-8 = test system: OVCAR-8
SF-295 = test system: SF-295
MDA-MB-435 = test system: MDA-MB-435
RXF 631 = test system: RXF 631
SF-539 = test system: SF-539
NCI-H460 = test system: NCI-H460
UACC-257 = test system: UACC-257
MDA-N = test system: MDA-N
786-0 = test system: 786-0
ACHN = test system: ACHN
DU-145 = test system: DU-145
SK-MEL-28 = test system: SK-MEL-28
NCI/ADR-RES = test system: NCI/ADR-RES
PC-3 = test system: PC-3
RPMI-8226 = test system: RPMI-8226
U-251 = test system: U-251
RXF 393 = test system: RXF 393
SW-620 = test system: SW-620
DMS-114 = test system: DMS-114
NCI-H226 = test system: NCI-H226
M14 = test system: M14
COLO 205 = test system: COLO 205
CAKI-1 = test system: CAKI-1
OVCAR-3 = test system: OVCAR-3
HCT-15 = test system: HCT-15
NCI-H23 = test system: NCI-H23
OVCAR-5 = test system: OVCAR-5
SK-MEL-5 = test system: SK-MEL-5
BT-549 = test system: BT-549
TK-10 = test system: TK-10

CCN(CC)c1ccc(C(=C2C=CC(=[N+](CC)CC)C=C2)c2ccc(N(CC)CC)cc2)cc1
GI50 (K562): 0.0353 µM (active) | GI50 (HCC 2998): 0.186 µM (active) | GI50 (SNB-75): 0.104 µM (active) | GI50 (KM-20L2): 0.184 µM (active) | GI50 (Hs-578T): 0.0889 µM (active) | GI50 (M19-MEL): 0.0948 µM (active) | GI50 (CCRF-CEM): 0.0593 µM (active) | GI50 (HOP-92): 0.211 µM (active) | GI50 (SR): 0.0843 µM (active) | GI50 (UO-31): 0.212 µM (active) | GI50 (UACC-62): 0.219 µM (active) | GI50 (SK-OV-3): 0.0773 µM (active) | GI50 (XF498): 0.0296 µM (active) | GI50 (HT-29): 0.0414 µM (active) | GI50 (HL-60): 0.0303 µM (active) | GI50 (SK-MEL-2): 0.117 µM (active) | GI50 (HCT-116): 0.0493 µM (active) | GI50 (T47D): 0.106 µM (active) | GI50 (SF-268): 0.084 µM (active) | GI50 (MDA-MB-231): 0.063 µM (active) | GI50 (DLD-1): 0.063 µM (active) | GI50 (MOLT-4): 0.115 µM (active) | GI50 (HOP-62): 0.238 µM (active) | GI50 (KM12): 0.0561 µM (active) | GI50 (A549): 0.04 µM (active) | GI50 (MCF7): 0.158 µM (active) | GI50 (Malme-3M): 0.148 µM (active) | GI50 (SNB-78): 0.398 µM (active) | GI50 (EKVX): 0.244 µM (active) | GI50 (DMS-273): 0.137 µM (active) | GI50 (SN12C): 0.0522 µM (active) | GI50 (SNB-19): 0.101 µM (active) | GI50 (OVCAR-4): 0.234 µM (active) | GI50 (NCI-H522): 0.113 µM (active) | GI50 (LOX IMVI): 0.0541 µM (active) | GI50 (IGROV-1): 0.146 µM (active) | GI50 (OVCAR-8): 0.0391 µM (active) | GI50 (SF-295): 0.0483 µM (active) | GI50 (MDA-MB-435): 0.111 µM (active) | GI50 (RXF 631): 0.194 µM (active) | GI50 (SF-539): 0.195 µM (active) | GI50 (NCI-H460): 0.0411 µM (active) | GI50 (UACC-257): 0.132 µM (active) | GI50 (MDA-N): 0.103 µM (active) | GI50 (786-0): 0.057 µM (active) | GI50 (ACHN): 0.0446 µM (active) | GI50 (DU-145): 0.0708 µM (active) | GI50 (SK-MEL-28): 0.489 µM (active) | GI50 (NCI/ADR-RES): 0.521 µM (active) | GI50 (PC-3): 0.0423 µM (active) | GI50 (RPMI-8226): 0.0342 µM (active) | GI50 (U-251): 0.0412 µM (active) | GI50 (RXF 393): 0.18 µM (active) | GI50 (SW-620): 0.0711 µM (active) | GI50 (DMS-114): 0.0507 µM (active) | GI50 (NCI-H226): 0.407 µM (active) | GI50 (M14): 0.175 µM (active) | GI50 (COLO 205): 0.0627 µM (active) | GI50 (CAKI-1): 0.21 µM (active) | GI50 (OVCAR-3): 0.0393 µM (active) | GI50 (HCT-15): 0.194 µM | GI50 (NCI-H23): 0.0773 µM (active) | GI50 (OVCAR-5): 0.303 µM (active) | GI50 (SK-MEL-5): 0.094 µM (active) | GI50 (BT-549): 0.0332 µM (active) | GI50 (TK-10): 0.214 µM (active)
